This is an account of results in the kinase profiling compilation of Christmann-Franck et al. (2016).

Each structure is given as a SMILES string.

Chain of STK10 (human) (O94804 whole entry, looked up): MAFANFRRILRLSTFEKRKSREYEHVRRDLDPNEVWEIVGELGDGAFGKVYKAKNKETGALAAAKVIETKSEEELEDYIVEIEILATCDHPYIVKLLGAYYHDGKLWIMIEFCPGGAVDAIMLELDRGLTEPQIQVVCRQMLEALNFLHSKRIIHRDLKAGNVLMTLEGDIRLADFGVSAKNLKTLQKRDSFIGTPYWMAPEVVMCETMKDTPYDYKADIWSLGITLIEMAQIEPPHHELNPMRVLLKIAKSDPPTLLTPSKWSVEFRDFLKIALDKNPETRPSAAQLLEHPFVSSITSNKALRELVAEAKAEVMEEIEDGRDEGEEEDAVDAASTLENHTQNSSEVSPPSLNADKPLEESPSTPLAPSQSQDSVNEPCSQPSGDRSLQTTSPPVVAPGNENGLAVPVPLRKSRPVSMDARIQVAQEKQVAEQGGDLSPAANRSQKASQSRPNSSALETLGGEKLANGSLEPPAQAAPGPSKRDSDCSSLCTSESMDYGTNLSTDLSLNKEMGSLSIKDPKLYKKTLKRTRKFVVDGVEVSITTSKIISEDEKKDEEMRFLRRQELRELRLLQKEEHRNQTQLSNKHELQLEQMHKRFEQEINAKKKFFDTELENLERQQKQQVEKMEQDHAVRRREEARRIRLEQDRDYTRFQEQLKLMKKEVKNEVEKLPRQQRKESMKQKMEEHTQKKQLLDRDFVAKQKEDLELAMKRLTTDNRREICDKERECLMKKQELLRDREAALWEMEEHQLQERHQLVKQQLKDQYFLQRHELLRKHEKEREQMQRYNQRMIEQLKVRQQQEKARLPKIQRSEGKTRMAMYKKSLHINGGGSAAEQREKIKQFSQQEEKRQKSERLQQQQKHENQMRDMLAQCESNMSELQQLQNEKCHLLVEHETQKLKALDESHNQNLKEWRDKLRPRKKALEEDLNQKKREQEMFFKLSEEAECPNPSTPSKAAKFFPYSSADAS
Chain of PAK6 (human) (Q9NQU5 whole entry, looked up): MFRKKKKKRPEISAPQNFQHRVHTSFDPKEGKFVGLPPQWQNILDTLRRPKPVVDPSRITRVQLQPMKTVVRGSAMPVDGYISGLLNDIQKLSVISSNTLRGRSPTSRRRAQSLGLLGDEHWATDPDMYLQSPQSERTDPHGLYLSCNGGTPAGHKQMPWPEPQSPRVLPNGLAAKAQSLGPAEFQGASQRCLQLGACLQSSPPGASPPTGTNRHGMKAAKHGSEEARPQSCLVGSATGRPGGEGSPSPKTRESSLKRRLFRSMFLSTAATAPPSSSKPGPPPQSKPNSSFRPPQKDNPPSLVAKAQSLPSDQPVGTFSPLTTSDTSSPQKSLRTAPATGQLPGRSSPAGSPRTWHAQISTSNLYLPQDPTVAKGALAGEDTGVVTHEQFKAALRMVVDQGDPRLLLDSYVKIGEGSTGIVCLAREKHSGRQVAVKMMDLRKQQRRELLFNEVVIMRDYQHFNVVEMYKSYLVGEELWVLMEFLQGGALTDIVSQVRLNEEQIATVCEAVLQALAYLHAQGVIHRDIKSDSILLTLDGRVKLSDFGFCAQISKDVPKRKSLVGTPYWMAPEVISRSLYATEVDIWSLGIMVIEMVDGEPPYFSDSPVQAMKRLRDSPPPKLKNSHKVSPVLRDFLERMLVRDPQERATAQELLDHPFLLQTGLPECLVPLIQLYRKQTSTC
Chain of TAOK3 (human) (Q9H2K8 whole entry, looked up): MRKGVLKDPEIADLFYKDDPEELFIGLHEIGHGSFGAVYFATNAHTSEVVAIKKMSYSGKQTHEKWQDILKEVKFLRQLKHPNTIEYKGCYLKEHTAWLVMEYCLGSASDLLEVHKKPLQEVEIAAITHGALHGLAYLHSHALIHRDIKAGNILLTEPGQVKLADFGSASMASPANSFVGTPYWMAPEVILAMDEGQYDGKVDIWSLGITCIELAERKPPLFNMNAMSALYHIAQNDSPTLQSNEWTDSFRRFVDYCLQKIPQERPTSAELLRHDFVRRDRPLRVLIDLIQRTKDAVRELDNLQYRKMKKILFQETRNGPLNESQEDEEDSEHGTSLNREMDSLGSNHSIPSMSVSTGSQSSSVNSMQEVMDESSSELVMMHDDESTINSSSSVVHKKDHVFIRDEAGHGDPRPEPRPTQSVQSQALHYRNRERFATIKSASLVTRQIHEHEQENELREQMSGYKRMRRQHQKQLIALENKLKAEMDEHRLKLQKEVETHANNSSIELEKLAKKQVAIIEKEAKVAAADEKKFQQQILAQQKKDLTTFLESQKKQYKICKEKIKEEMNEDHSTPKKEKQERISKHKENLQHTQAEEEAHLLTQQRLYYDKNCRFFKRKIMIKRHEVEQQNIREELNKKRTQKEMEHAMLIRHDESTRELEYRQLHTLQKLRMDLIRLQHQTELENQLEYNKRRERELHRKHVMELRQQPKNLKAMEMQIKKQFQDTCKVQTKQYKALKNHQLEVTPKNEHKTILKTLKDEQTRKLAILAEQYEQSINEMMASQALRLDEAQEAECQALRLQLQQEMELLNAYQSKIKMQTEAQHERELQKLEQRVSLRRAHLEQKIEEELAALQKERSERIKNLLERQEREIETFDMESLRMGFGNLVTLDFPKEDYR
Chain of LRRK2 (human) (Q5S007 whole entry, looked up): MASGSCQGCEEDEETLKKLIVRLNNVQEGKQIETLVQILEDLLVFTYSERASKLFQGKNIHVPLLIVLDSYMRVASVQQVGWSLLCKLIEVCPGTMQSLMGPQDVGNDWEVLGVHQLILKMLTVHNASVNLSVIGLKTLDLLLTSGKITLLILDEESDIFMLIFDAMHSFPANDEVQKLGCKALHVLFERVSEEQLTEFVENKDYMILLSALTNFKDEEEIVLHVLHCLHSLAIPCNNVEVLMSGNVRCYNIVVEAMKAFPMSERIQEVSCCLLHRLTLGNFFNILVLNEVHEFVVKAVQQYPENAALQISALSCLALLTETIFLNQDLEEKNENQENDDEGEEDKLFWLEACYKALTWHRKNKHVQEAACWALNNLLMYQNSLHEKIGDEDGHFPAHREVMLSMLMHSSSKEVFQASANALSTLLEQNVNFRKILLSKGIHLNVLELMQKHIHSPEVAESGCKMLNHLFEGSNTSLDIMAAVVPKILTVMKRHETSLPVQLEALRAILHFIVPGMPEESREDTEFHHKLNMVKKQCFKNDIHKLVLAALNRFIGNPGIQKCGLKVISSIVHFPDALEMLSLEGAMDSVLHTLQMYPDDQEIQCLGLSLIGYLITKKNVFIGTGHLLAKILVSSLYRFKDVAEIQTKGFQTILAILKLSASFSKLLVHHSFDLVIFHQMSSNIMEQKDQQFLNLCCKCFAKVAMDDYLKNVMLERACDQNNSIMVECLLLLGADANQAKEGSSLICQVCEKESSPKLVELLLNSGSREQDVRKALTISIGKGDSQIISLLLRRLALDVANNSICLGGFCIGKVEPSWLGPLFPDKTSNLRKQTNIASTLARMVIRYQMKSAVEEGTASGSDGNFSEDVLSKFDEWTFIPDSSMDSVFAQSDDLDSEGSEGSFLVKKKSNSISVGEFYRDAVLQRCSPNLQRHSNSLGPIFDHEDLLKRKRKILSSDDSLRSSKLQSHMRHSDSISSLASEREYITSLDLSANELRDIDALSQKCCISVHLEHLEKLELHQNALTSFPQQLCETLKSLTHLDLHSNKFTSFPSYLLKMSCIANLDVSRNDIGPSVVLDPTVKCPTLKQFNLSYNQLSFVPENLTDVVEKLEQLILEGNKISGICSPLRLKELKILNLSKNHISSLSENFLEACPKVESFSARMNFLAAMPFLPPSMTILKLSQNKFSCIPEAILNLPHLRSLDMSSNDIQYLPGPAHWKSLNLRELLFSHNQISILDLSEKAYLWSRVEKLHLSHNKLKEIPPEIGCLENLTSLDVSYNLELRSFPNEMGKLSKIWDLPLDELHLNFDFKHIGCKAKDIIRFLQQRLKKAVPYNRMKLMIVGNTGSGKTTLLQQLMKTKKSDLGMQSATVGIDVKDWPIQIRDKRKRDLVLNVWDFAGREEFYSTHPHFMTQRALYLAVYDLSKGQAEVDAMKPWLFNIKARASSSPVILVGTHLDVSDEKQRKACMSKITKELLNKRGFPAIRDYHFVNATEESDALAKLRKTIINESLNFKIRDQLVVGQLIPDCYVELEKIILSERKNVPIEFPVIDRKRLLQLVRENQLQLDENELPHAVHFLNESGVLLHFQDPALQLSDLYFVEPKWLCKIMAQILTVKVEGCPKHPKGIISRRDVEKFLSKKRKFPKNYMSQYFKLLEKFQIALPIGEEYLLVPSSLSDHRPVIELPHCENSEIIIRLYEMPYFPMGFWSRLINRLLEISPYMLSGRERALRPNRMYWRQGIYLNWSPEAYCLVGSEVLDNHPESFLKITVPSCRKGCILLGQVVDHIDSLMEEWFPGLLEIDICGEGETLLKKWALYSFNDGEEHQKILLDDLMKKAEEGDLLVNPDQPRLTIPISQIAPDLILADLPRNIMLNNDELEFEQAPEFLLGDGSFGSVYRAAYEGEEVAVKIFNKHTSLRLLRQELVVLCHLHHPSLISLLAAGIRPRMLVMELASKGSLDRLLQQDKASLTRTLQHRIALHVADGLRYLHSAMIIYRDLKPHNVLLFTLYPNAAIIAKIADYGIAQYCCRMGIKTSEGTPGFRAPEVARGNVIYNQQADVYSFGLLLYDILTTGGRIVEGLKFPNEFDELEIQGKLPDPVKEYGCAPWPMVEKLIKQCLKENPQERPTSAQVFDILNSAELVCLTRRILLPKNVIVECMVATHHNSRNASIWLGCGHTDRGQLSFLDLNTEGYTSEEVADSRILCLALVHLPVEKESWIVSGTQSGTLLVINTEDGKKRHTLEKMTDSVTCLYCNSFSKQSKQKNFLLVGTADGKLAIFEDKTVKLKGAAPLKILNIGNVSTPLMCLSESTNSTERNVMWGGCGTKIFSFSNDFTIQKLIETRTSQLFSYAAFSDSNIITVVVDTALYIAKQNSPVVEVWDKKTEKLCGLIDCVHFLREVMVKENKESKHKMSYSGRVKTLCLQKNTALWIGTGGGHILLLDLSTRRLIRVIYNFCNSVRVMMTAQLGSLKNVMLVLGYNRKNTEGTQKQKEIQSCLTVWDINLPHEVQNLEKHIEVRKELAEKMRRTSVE

One test addresses LRRK2 (human) (UniProt Q5S007). The test is described as follows: radiometric filter-binding kinase assay, Kinase HotSpot. The following applies: compound 0.5 µM; ATP 10 µM.
In general, residual activity refers to the signal under treatment as a percentage of the control signal. For the molecule `CCN(CC)CCNC(=O)c1c(C)[nH]c(/C=C2\C(=O)Nc3ccc(Cl)cc32)c1C`, the residual activity turned out to be 1.44%.

For the molecule `Cc1[nH]c(/C=C2\C(=O)Nc3ccc(S(=O)(=O)N(C)c4cccc(Cl)c4)cc32)c(C)c1C(=O)N1CCN(C)CC1`, the residual activity was determined as 6.63%.

In the case of `Nc1ncnc2[nH]nc(Nc3ccc(F)cc3)c12`, the residual activity was determined as 89.6%.

The target of another test is LTK (human) (UniProt P29376). Described as above. The following applies: compound 0.5 µM; ATP 10 µM.
As for `CCN(CC)CCNC(=O)c1c(C)[nH]c(/C=C2\C(=O)Nc3ccc(Cl)cc32)c1C`, the residual activity was 11.6%.

Regarding `Cc1[nH]c(/C=C2\C(=O)Nc3ccc(S(=O)(=O)N(C)c4cccc(Cl)c4)cc32)c(C)c1C(=O)N1CCN(C)CC1`, the residual activity turned out to be 45.5%.

As for `Nc1ncnc2[nH]nc(Nc3ccc(F)cc3)c12`, the residual activity was found to be 92.5%.

The target in another test is MAP3K5 (human) (UniProt Q99683). The description is as above. To be noted: compound 0.5 µM; ATP 10 µM.
As to `CCN(CC)CCNC(=O)c1c(C)[nH]c(/C=C2\C(=O)Nc3ccc(Cl)cc32)c1C`, the residual activity was determined as 98.1%.

As for `Cc1[nH]c(/C=C2\C(=O)Nc3ccc(S(=O)(=O)N(C)c4cccc(Cl)c4)cc32)c(C)c1C(=O)N1CCN(C)CC1`, the residual activity was determined as 105%.

Regarding `Nc1ncnc2[nH]nc(Nc3ccc(F)cc3)c12`, the residual activity was 111%.

A further test deals with MAP3K9 (human) (UniProt P80192). Described as above. The following applies: compound 0.5 µM; ATP 10 µM.
Regarding `CCN(CC)CCNC(=O)c1c(C)[nH]c(/C=C2\C(=O)Nc3ccc(Cl)cc32)c1C`, the residual activity was found to be 49.6%.

With `Cc1[nH]c(/C=C2\C(=O)Nc3ccc(S(=O)(=O)N(C)c4cccc(Cl)c4)cc32)c(C)c1C(=O)N1CCN(C)CC1`, the residual activity was 95.2%.

Consider `Nc1ncnc2[nH]nc(Nc3ccc(F)cc3)c12`, for which the residual activity was found to be 100%.

Another test has as its target MAP4K4 (human) (UniProt O95819). The description is as above. To be noted: compound 0.5 µM; ATP 10 µM.
For `CCN(CC)CCNC(=O)c1c(C)[nH]c(/C=C2\C(=O)Nc3ccc(Cl)cc32)c1C`, the residual activity came to 4.33%.

Regarding `Cc1[nH]c(/C=C2\C(=O)Nc3ccc(S(=O)(=O)N(C)c4cccc(Cl)c4)cc32)c(C)c1C(=O)N1CCN(C)CC1`, the residual activity amounted to 40.9%.

As for `Nc1ncnc2[nH]nc(Nc3ccc(F)cc3)c12`, the residual activity turned out to be 59.4%.

The target in a further test is MAPK8 (human) (UniProt P45983). The test is described as above. To be noted: compound 0.5 µM; ATP 10 µM.
Consider `CCN(CC)CCNC(=O)c1c(C)[nH]c(/C=C2\C(=O)Nc3ccc(Cl)cc32)c1C`, for which the residual activity stood at 97.2%.

On to `Cc1[nH]c(/C=C2\C(=O)Nc3ccc(S(=O)(=O)N(C)c4cccc(Cl)c4)cc32)c(C)c1C(=O)N1CCN(C)CC1`, for which the residual activity was 86.9%.

In the case of `Nc1ncnc2[nH]nc(Nc3ccc(F)cc3)c12`, the residual activity came to 111%.

For another test, the target named is MST4 (human) (UniProt Q9P289). The test is described as above. The following applies: compound 0.5 µM; ATP 10 µM.
Regarding `CCN(CC)CCNC(=O)c1c(C)[nH]c(/C=C2\C(=O)Nc3ccc(Cl)cc32)c1C`, the residual activity was determined as 73.2%.

On to `Cc1[nH]c(/C=C2\C(=O)Nc3ccc(S(=O)(=O)N(C)c4cccc(Cl)c4)cc32)c(C)c1C(=O)N1CCN(C)CC1`, for which the residual activity worked out at 63.5%.

With `Nc1ncnc2[nH]nc(Nc3ccc(F)cc3)c12`, the residual activity came to 91%.

The next test deals with NEK3 (human) (UniProt P51956). The description is as above. To be noted: compound 0.5 µM; ATP 10 µM.
For `CCN(CC)CCNC(=O)c1c(C)[nH]c(/C=C2\C(=O)Nc3ccc(Cl)cc32)c1C`, the residual activity was determined as 94%.

For `Cc1[nH]c(/C=C2\C(=O)Nc3ccc(S(=O)(=O)N(C)c4cccc(Cl)c4)cc32)c(C)c1C(=O)N1CCN(C)CC1`, the residual activity was 98.7%.

With `Nc1ncnc2[nH]nc(Nc3ccc(F)cc3)c12`, the residual activity was 102%.

The target in another test is NEK4 (human) (UniProt P51957). Described as above. The following applies: compound 0.5 µM; ATP 10 µM.
As to `CCN(CC)CCNC(=O)c1c(C)[nH]c(/C=C2\C(=O)Nc3ccc(Cl)cc32)c1C`, the residual activity is 97%.

For `Cc1[nH]c(/C=C2\C(=O)Nc3ccc(S(=O)(=O)N(C)c4cccc(Cl)c4)cc32)c(C)c1C(=O)N1CCN(C)CC1`, the residual activity turned out to be 79.7%.

Turning to `Nc1ncnc2[nH]nc(Nc3ccc(F)cc3)c12`, the residual activity was determined as 92.8%.

Another test addresses PAK6 (human) (UniProt Q9NQU5). The description is as above. The following applies: compound 0.5 µM; ATP 10 µM.
In the case of `CCN(CC)CCNC(=O)c1c(C)[nH]c(/C=C2\C(=O)Nc3ccc(Cl)cc32)c1C`, the residual activity was determined as 101%.

Take `Cc1[nH]c(/C=C2\C(=O)Nc3ccc(S(=O)(=O)N(C)c4cccc(Cl)c4)cc32)c(C)c1C(=O)N1CCN(C)CC1`: the residual activity worked out at 108%.

Take `Nc1ncnc2[nH]nc(Nc3ccc(F)cc3)c12`: the residual activity stood at 109%.

The next test concerns the target PIM2 (human) (UniProt Q9P1W9). The description is as above. The following applies: compound 0.5 µM; ATP 10 µM.
As for `CCN(CC)CCNC(=O)c1c(C)[nH]c(/C=C2\C(=O)Nc3ccc(Cl)cc32)c1C`, the residual activity turned out to be 101%.

In the case of `Cc1[nH]c(/C=C2\C(=O)Nc3ccc(S(=O)(=O)N(C)c4cccc(Cl)c4)cc32)c(C)c1C(=O)N1CCN(C)CC1`, the residual activity is 103%.

`Nc1ncnc2[nH]nc(Nc3ccc(F)cc3)c12`: the residual activity was found to be 89.3%.

A further test has as its target PLK2 (human) (UniProt Q9NYY3). The test is described as above. To be noted: compound 0.5 µM; ATP 10 µM.
For `CCN(CC)CCNC(=O)c1c(C)[nH]c(/C=C2\C(=O)Nc3ccc(Cl)cc32)c1C`, the residual activity came out at 91.2%.

For the molecule `Cc1[nH]c(/C=C2\C(=O)Nc3ccc(S(=O)(=O)N(C)c4cccc(Cl)c4)cc32)c(C)c1C(=O)N1CCN(C)CC1`, the residual activity was found to be 96.4%.

On to `Nc1ncnc2[nH]nc(Nc3ccc(F)cc3)c12`, for which the residual activity stood at 101%.

A further test deals with PRKCI (human) (UniProt P41743). The description is as above. To be noted: compound 0.5 µM; ATP 10 µM.
For the molecule `CCN(CC)CCNC(=O)c1c(C)[nH]c(/C=C2\C(=O)Nc3ccc(Cl)cc32)c1C`, the residual activity worked out at 91.9%.

`Cc1[nH]c(/C=C2\C(=O)Nc3ccc(S(=O)(=O)N(C)c4cccc(Cl)c4)cc32)c(C)c1C(=O)N1CCN(C)CC1`: the residual activity is 98.7%.

As for `Nc1ncnc2[nH]nc(Nc3ccc(F)cc3)c12`, the residual activity worked out at 91.3%.

In a further test the target is RAF1 (human) (UniProt P04049). The test is described as above. To be noted: compound 0.5 µM; ATP 10 µM.
As to `CCN(CC)CCNC(=O)c1c(C)[nH]c(/C=C2\C(=O)Nc3ccc(Cl)cc32)c1C`, the residual activity was 117%.

In the case of `Cc1[nH]c(/C=C2\C(=O)Nc3ccc(S(=O)(=O)N(C)c4cccc(Cl)c4)cc32)c(C)c1C(=O)N1CCN(C)CC1`, the residual activity was found to be 114%.

`Nc1ncnc2[nH]nc(Nc3ccc(F)cc3)c12`: the residual activity was 96.7%.

In another test the target is RIPK2 (human) (UniProt O43353). The description is as above. The following applies: compound 0.5 µM; ATP 10 µM.
Turning to `CCN(CC)CCNC(=O)c1c(C)[nH]c(/C=C2\C(=O)Nc3ccc(Cl)cc32)c1C`, the residual activity was 84.1%.

For the molecule `Cc1[nH]c(/C=C2\C(=O)Nc3ccc(S(=O)(=O)N(C)c4cccc(Cl)c4)cc32)c(C)c1C(=O)N1CCN(C)CC1`, the residual activity came out at 92.7%.

For the molecule `Nc1ncnc2[nH]nc(Nc3ccc(F)cc3)c12`, the residual activity worked out at 68.7%.

In the next test the target is ROS1 (human) (UniProt P08922). Described as above. The following applies: compound 0.5 µM; ATP 10 µM.
On to `CCN(CC)CCNC(=O)c1c(C)[nH]c(/C=C2\C(=O)Nc3ccc(Cl)cc32)c1C`, for which the residual activity came to 43.9%.

With `Cc1[nH]c(/C=C2\C(=O)Nc3ccc(S(=O)(=O)N(C)c4cccc(Cl)c4)cc32)c(C)c1C(=O)N1CCN(C)CC1`, the residual activity amounted to 69.6%.

On to `Nc1ncnc2[nH]nc(Nc3ccc(F)cc3)c12`, for which the residual activity was found to be 99.9%.

The next test deals with RPS6KB1 (human) (UniProt P23443). The test is described as above. The following applies: compound 0.5 µM; ATP 10 µM.
As to `CCN(CC)CCNC(=O)c1c(C)[nH]c(/C=C2\C(=O)Nc3ccc(Cl)cc32)c1C`, the residual activity stood at 41.7%.

`Cc1[nH]c(/C=C2\C(=O)Nc3ccc(S(=O)(=O)N(C)c4cccc(Cl)c4)cc32)c(C)c1C(=O)N1CCN(C)CC1`: the residual activity came to 83.7%.

`Nc1ncnc2[nH]nc(Nc3ccc(F)cc3)c12`: the residual activity is 94.3%.

A further test addresses SRPK1 (human) (UniProt Q96SB4). Described as above. The following applies: compound 0.5 µM; ATP 10 µM.
Regarding `CCN(CC)CCNC(=O)c1c(C)[nH]c(/C=C2\C(=O)Nc3ccc(Cl)cc32)c1C`, the residual activity was 95.9%.

`Cc1[nH]c(/C=C2\C(=O)Nc3ccc(S(=O)(=O)N(C)c4cccc(Cl)c4)cc32)c(C)c1C(=O)N1CCN(C)CC1`: the residual activity was 77.3%.

As for `Nc1ncnc2[nH]nc(Nc3ccc(F)cc3)c12`, the residual activity worked out at 104%.

Another test addresses STK10 (human) (UniProt O94804). The test is described as above. The following applies: compound 0.5 µM; ATP 10 µM.
In the case of `CCN(CC)CCNC(=O)c1c(C)[nH]c(/C=C2\C(=O)Nc3ccc(Cl)cc32)c1C`, the residual activity came to 7.11%.

Consider `Cc1[nH]c(/C=C2\C(=O)Nc3ccc(S(=O)(=O)N(C)c4cccc(Cl)c4)cc32)c(C)c1C(=O)N1CCN(C)CC1`, for which the residual activity turned out to be 9.05%.

For `Nc1ncnc2[nH]nc(Nc3ccc(F)cc3)c12`, the residual activity turned out to be 70.5%.

The next test concerns the target TAOK3 (human) (UniProt Q9H2K8). The description is as above. To be noted: compound 0.5 µM; ATP 10 µM.
On to `CCN(CC)CCNC(=O)c1c(C)[nH]c(/C=C2\C(=O)Nc3ccc(Cl)cc32)c1C`, for which the residual activity was 45.5%.

Turning to `Cc1[nH]c(/C=C2\C(=O)Nc3ccc(S(=O)(=O)N(C)c4cccc(Cl)c4)cc32)c(C)c1C(=O)N1CCN(C)CC1`, the residual activity is 61.5%.

Regarding `Nc1ncnc2[nH]nc(Nc3ccc(F)cc3)c12`, the residual activity turned out to be 92.4%.

The next test has as its target TSSK1B (human) (UniProt Q9BXA7). The description is as above. The following applies: compound 0.5 µM; ATP 10 µM.
On to `CCN(CC)CCNC(=O)c1c(C)[nH]c(/C=C2\C(=O)Nc3ccc(Cl)cc32)c1C`, for which the residual activity is 8.45%.

Regarding `Cc1[nH]c(/C=C2\C(=O)Nc3ccc(S(=O)(=O)N(C)c4cccc(Cl)c4)cc32)c(C)c1C(=O)N1CCN(C)CC1`, the residual activity worked out at 21.7%.

As to `Nc1ncnc2[nH]nc(Nc3ccc(F)cc3)c12`, the residual activity came out at 96.4%.
